In US20030207891A1, “Combination therapy for modulating the human sexual response” (Zonagen, Inc., priority 1997, published 2003):
Where a name gives a salt, the structure may show the parent alone.

Key:
[1] = test system: corpus cavernosum; details: cited from earlier work; for erection after injection directly into the corpus cavernosum: hypodermic needle; for duration of erection after injection: intracavernosal, appropriate dose
[2] = test system: male erectile dysfunction; details: 25 mg and 50 mg; cited from earlier work
[3] = test system: impotentia erectionis; details: buccal, 100 I.U. three times a day for 14 days; cited from earlier work
[4] = test system: spontaneous erections in men; experiment: Effect of phentolamine and a phosphodiesterase inhibitor on spontaneous erections in men (Example 3); format: in vivo, human; details: alone, no sexual stimulation
From the text: Example 3 describes a study on the effect of phentolamine and a phosphodiesterase inhibitor on spontaneous erections in men.
Papaverine, a known non-specific phosphodiesterase inhibitor, in combination with phentolamine mesylate was compounded in a rapidly dissolving formulation as set out in Table 5 except that papaverine at the doses indicated below was substituted for Sildenafil.

[5] = test system: impotent men; details: ingestion; cited from earlier work

Row | Compound | erection after injection directly into the corpus cavernosum [1] | other results
1 | CCN(CC)CCOC(=O)C(Cc1cccc2ccccc12)CC1CCCO1 (mixture of isomers) [naftidrofuryl] | caused erection | –
2 | CCCc1nn(C)c2c(=O)[nH]c(-c3cc(S(=O)(=O)N4CCN(C)CC4)ccc3OCC)nc12 [Sildenafil, 5-[2-ethoxy-5-(4-methylpiperazine-1-ylsulfonyl)phenyl]-1-methyl-3-proplyl-6,7-dihydro-1-H-pyrazolo[4,3-d]pyrimidin-7-one] | – | effectiveness at various doses [2]: effective
3 | CN(C)CCCN1c2ccccc2CCc2ccccc21 [imipramine] | caused erection | –
4 | CC[C@H](C)[C@@H]1NC(=O)[C@H](Cc2ccc(O)cc2)NC(=O)[C@@H](N)CSSC[C@@H](C(=O)N2CCC[C@H]2C(=O)N[C@@H](CC(C)C)C(=O)NCC(N)=O)NC(=O)[C@H](CC(N)=O)NC(=O)[C@H](CCC(N)=O)NC1=O [oxytocin] | – | improvement of impotentia erectionis, patients treated [3]: 12 of the 16
5 | COc1ccc(Cc2nccc3cc(OC)c(OC)cc23)cc1OC [papaverine] | caused erection | duration of erection after injection [1]: unrelenting erection lasting for hours
6 | CC(COc1ccccc1)N(CCCl)Cc1ccccc1 (centres unmarked) [phenoxybenzamine] | caused erection | duration of erection after injection [1]: unrelenting erection lasting for hours
7 | Cc1ccc(N(CC2=NCCN2)c2cccc(O)c2)cc1 [phentolamine mesylate] | – | spontaneous erections [4]: did not exhibit spontaneous erections
8 | Cc1ccc(N(CC2=NCCN2)c2cccc(O)c2)cc1 [phentolamine] | caused erection | –
9 | CC(=O)Oc1cc(C(C)C)c(OCCN(C)C)cc1C [thymoxamine] | caused erection | –
10 | COc1ccc(CCN(C)CCCC(C#N)(c2ccc(OC)c(OC)c2)C(C)C)cc1OC (centres unmarked) [verapamil] | caused erection | –
11 | COC(=O)[C@@H]1[C@H]2C[C@H]3c4[nH]c5ccccc5c4CCN3C[C@@H]2CC[C@@H]1O [yohimbine] | – | subjective improvement in erectile ability, impotent men treated [5]: 38%; treated patients reporting complete satisfaction [5]: 5%
